Assays:
[1] = system: A2780 human ovarian carcinoma; test: A2780 human ovarian carcinoma xenograft tumor growth delay in athymic nude mice; details: monotherapy vs control; paclitaxel i.v. qod×5; ozanimod or Compound 103 p.o. qd to end; 60-day study
Method: Female athymic nude mice (Crl:NU(NCr)-Foxnlnu, Charles River Laboratories) were implanted with A2780 human ovarian carcinoma cells to initiate tumor growth.
Each mouse received 1×10^7 cells (0.1 mL cell suspension) subcutaneously in the right flank, and tumors were monitored as their volumes approached the target range of 100 to 150 mm3. Fourteen days later, designated as Day 1 of the study, mice were sorted into six groups of ten each. […] Tumors were measured twice weekly for the study duration.
Starting on Day 1 of the study, six groups (n=10) of female athymic nude mice with established A2780 tumors were treated according to the following plan. Treatments were administered either by intravenous injection (i.v.) or oral gavage (p.o.) and were adjusted to the body weight of the individual animal. Group 1 received Vehicle 1, i.v., once every other day for five doses (qod×5) and Vehicle 2, p.o., once daily to the end of the study (qd to end), and served as the control group for efficacy analysis. Group 2, the paclitaxel monotherapy group, received paclitaxel i.v., qod×5 plus Vehicle 2, p.o., qd to end. Group 3, the ozanimod monotherapy group, received ozanimod p.o., qd to end plus Vehicle 1, i.v., qod×5. Combination Group 4 received ozanimod p.o., qd to end plus paclitaxel i.v., qod×5.
Animals were monitored individually, and each mouse was euthanized when its tumor reached the endpoint volume of 2000 mm3 or on the final day, whichever came first. The time to endpoint (TTE) was calculated for each mouse. Treatment outcome was determined from percent tumor growth delay (% TGD), defined as the percent increase in median TTE for treated versus control mice, with differences in TTE values between groups deemed statistically significant at P<0.05 using logrank survival analysis. Mice were also monitored for complete regression (CR) and partial regression (PR) responses. An animal with a CR at the end of the study was additionally classified as a tumor-free survivor (TFS). Treatment tolerability was assessed by body weight measurements and frequent observation for clinical signs of treatment-related side effects.

[2] = molecular target: T1, human sphingosine-1-phosphate receptor 1 (S1P1) (Homo sapiens (Human), UniProt P21453); test: Inhibition of cAMP production (HTRF cAMP HiRange), S1P1 CHO-K1 cells; assay type: cell-based; details: for hS1P1 cAMP pEC50: inhibition of cAMP production, S1P1 CHO-K1 cells; for Emax: CHO-K1, efficacy (SPAN) normalized to fingolimod, read-out: hS1P1 cAMP SPAN
Procedure, shortened: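 CHO-K1 cells stably co-expressing human S1P1 (C-terminal Prolink tag) and EA-β-arrestin2 were grown in AssayComplete Media 6 at 37° C. and 5% CO2, plated, and incubated overnight. Agonist-driven inhibition of intracellular cAMP was read by TR-FRET with the HTRF cAMP HiRange kit on a PheraStar reader. Potency is pEC50, and efficacy (SPAN) is normalized to fingolimod.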
Target sequence in this assay (P21453 whole entry, looked up): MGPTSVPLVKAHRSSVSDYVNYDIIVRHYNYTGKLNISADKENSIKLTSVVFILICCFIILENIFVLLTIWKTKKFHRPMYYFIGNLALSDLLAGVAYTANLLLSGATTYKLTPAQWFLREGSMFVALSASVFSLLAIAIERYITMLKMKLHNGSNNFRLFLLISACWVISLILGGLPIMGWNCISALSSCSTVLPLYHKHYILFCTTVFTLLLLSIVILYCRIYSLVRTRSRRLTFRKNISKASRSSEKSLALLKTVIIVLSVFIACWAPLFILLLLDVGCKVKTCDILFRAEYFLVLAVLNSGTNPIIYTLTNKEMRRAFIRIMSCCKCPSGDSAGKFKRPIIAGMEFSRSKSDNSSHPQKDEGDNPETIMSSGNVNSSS

[3] = molecular target: T1, human sphingosine-1-phosphate receptor 1 (S1P1); test: β-Arrestin2 recruitment assay (PathHunter), S1P1 CHO-K1 cells; assay type: cell-based; details: for hS1P1 B-arrestin2 pEC50: β-arrestin2 recruitment, S1P1 CHO-K1 cells; for Emax: CHO-K1, efficacy (SPAN) normalized to fingolimod, read-out: hS1P1 B-arrestin2 SPAN
Procedure, shortened: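 Enzyme-fragment complementation read-out: agonist-driven β-arrestin2 binding to ProLink-tagged human S1P1 in stable CHO-K1 cells restores β-galactosidase, measured 1 h at room temperature after a 60 min 37° C. compound incubation. Potency as pEC50, efficacy relative to fingolimod (SPAN).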
Target sequence in this assay (P21453 whole entry, looked up): as above
Target sequence in this assay (P32121 whole entry partner, looked up): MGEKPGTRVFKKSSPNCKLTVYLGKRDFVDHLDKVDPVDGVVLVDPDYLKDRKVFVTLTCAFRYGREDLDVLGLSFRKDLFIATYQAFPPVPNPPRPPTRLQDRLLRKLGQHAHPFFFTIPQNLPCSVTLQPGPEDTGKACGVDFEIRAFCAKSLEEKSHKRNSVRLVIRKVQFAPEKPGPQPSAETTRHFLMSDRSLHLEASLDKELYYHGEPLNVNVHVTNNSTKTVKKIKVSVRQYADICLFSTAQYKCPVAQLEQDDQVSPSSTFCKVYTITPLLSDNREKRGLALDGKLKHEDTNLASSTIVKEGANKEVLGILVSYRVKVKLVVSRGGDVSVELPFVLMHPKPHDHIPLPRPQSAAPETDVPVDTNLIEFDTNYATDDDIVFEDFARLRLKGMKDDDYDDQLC

[4] = system: oxaliplatin induced peripheral neuropathy; test: Reversal of allodynia induced by oxaliplatin in mice (von Frey frequency method); assay type: in vivo, c57bl/6 mice; details: tested 30 min after dosing
Method: Compounds were tested for efficacy in mouse models of chemotherapy induced peripheral neuropathy. […] For these studies […]/6 mice are habituated to the test environment and baseline measurements of pain sensitivity are assessed. To determine mechanical responses, the threshold for responses to punctate mechanical stimuli (mechanical hyperalgesia) was tested according to the frequency method. In brief, the plantar surface of the animal hindpaw was stimulated with a single von Frey monofilament (0.4 g) for approximately 1-2 seconds. If there was a withdrawal response, it was recorded as a positive response. A response was defined as a lifting or shaking of the paw upon stimulation. This was repeated ten times for each mouse. The final measurement for each mouse is the % non-response to stimulation for the ten trials. The % non-response to stimulation is converted to a % MPE. For paclitaxel induced peripheral neuropathy, a series of injections of PAC (6 mg/kg, i.p.) on days 1, 3, 5 and 7 is used to induce peripheral neuropathy. After approximately 14 days from the initiation of PAC injections, animals are re-assessed for mechanical sensitivity. […] On test day animals are dosed with compounds either subcutaneously or orally and tested for mechanical response by the frequency method either 30 min (s.c.) or 60 min (p.o.) after drug administration. Data is presented as a % MPE. For oxaliplatin induced peripheral neuropathy, a series of injections of OXA (4 mg/kg, i.p.) on days 1-5 is used to induce peripheral neuropathy. After approximately 14 days from the initiation of PAC injections, animals are re-assessed for mechanical sensitivity. […] On test day animals are dosed with compounds subcutaneously and tested for mechanical response by the frequency method 30 min after drug administration. Data is presented as a % MPE. One or more of the compounds show reversal of chemotherapeutic induced peripheral neuropathy.

[5] = system: paclitaxel induced peripheral neuropathy; test: Reversal of allodynia induced by paclitaxel in mice (s.c. or p.o., von Frey frequency method); assay type: in vivo, c57bl/6 mice; details: Mus musculus; for inhibition in vivo at 1 mg/kg: sc, 0.5 h, 1 mg/kg s.c., tested 30 min after dosing, read-out: Screen @ 1 mg/kg sc (% MPE); for inhibition in vivo at 3 mg/kg: po, 1 h, 3 mg/kg p.o., tested 60 min after dosing, read-out: Screen @ 3 mg/kg po (% MPE)
Procedure, shortened: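 Neuropathy was induced in mice by paclitaxel (6 mg/kg i.p., days 1, 3, 5, 7) or oxaliplatin (4 mg/kg i.p., days 1-5), with re-testing about 14 days later. Compounds were given s.c. (tested at 30 min) or p.o. (tested at 60 min; paclitaxel only). A 0.4 g von Frey filament was applied ten times per paw, and % non-response was converted to % MPE.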

[6] = system: peripheral blood lymphocytes; test: Peripheral blood lymphocytes (lymphopenia) in c57bl/6 mice, acute and chronic studies; assay type: in vivo; details: peripheral blood lymphocytes vs vehicle; 6 mg/kg sc, 7 days
Method: Compounds were tested for changes in peripheral blood lymphocytes in c57bl/6 mice. In acute studies, animals (n=5/group) were dosed subcutaneously with test compound at a dose of 3 mg/kg. Animals were sacrificed at specific time points and 500 μl of whole blood was collected in EDTA (K2) Eppendorf tubes. Blood was stored on ice and shipped immediately overnight delivery to Charles River Laboratories for analysis. CRL ran samples through their WBC/differential panel on an Advia 120 instrument. We received peripheral lymphocyte counts (10^3 cells/μl) for each blood sample. Treatment group means were compared to a vehicle treatment group for statistical significance. In chronic studies, animals (n=6-8/group) were dosed subcutaneously with test compound either in a dose response paradigm (highest dose of 3 mg/kg) or in a screening paradigm at 6 mg/kg for seven days. On the seventh day, animals were sacrificed 45 minutes after the final dose. Whole blood was collected and analyzed as described for acute studies. […]

[7] = system: Freund's Complete Adjuvant induced inflammation / mechanical allodynia; test: Tactile allodynia produced by intraplantar Freund's Complete Adjuvant in rats (Randall-Selitto); assay type: in vivo, rat; details: CFA model, 24 hours after CFA
Method: Animals were acclimated to the vivarium for at least 48 hr prior to behavioral testing. Inflammation was induced with the administration of an intraplantar (subcutaneous injection into the plantar surface of the hind paw, i.pl.) injection of 0.10 ml Freund's Complete Adjuvant (FCA). The experiments were conducted 24 hours after CFA administration. Rats are tested for mechanical allodynia in a Randall-Selitto apparatus. The inflamed paw is put on a pedestal and a pointed force of increasing intensity (0 to 250 grams) is applied to the paw. When the animal struggles to withdraw from the force the test is stopped and the force to induce that struggle is recorded. Data is presented as mean grams of force to withdrawal or a percentage of the maximum possible effect.

hERG channel = hERG channel (Homo sapiens (Human), UniProt Q12809); test: Automated Qpatch patch-clamp hERG assay
Chain of hERG channel (Q12809 whole entry): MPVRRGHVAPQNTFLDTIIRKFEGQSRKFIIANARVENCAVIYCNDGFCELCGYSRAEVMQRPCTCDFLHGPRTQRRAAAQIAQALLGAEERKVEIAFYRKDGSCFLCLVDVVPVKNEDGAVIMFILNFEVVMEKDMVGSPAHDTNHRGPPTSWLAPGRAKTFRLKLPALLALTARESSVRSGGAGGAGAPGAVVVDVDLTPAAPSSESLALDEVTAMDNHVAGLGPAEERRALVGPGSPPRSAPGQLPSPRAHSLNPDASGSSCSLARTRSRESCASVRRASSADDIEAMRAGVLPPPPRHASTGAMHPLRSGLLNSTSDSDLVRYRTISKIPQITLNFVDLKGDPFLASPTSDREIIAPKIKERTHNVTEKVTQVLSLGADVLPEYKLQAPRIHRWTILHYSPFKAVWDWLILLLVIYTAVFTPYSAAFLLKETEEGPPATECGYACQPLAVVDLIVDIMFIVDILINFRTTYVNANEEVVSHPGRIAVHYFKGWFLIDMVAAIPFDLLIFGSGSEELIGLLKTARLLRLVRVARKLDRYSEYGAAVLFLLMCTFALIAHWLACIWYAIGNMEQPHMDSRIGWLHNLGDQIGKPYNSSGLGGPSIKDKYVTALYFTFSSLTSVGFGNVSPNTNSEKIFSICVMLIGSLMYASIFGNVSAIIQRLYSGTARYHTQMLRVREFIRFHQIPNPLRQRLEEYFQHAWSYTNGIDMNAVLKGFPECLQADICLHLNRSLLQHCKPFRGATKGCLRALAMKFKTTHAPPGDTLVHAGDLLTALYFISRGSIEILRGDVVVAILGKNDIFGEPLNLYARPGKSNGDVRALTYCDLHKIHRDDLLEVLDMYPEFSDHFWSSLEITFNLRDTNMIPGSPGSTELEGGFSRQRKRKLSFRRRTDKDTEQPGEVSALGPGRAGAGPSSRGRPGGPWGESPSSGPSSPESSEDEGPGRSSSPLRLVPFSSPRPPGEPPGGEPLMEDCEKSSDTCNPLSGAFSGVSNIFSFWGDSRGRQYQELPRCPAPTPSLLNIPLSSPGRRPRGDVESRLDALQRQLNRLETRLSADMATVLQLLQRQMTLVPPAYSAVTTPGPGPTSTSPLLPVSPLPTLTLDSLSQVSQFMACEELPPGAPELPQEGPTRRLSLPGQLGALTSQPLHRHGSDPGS

SMILES	hS1P1 cAMP pEC50 [2]	hS1P1 B-arrestin2 pEC50 [3]	Lymphopenia: Effect and Doses, mg/kg, sc [6]	inhibition in vivo at 3 mg/kg [5] [%]	IC50 (hERG channel) [µM]	other results
CC(=O)O[C@H]1C(=O)[C@@]2(C)[C@H]([C@H](OC(=O)c3ccccc3)[C@]3(O)C[C@H](OC(=O)[C@H](O)[C@@H](NC(=O)c4ccccc4)c4ccccc4)C(C)=C1C3(C)C)[C@]1(OC(C)=O)CO[C@@H]1C[C@@H]2O [Paclitaxel, reference compound]						percent tumor growth delay (% TGD), monotherapy [1]: 128%
Cc1ccsc1-c1noc(-c2ccc3c(c2)nnn3C(C)C)n1 [Compound 169, 5-[3-(3-methylthiophen-2-yl)-1,2,4-oxadiazol-5-yl]-1-(propan-2-yl)-1H-1,2,3-benzotriazole]	>6.5	>5	no change: 6 mg/kg, 7 days			Screen @ 3 mg/kg sc (% MPE) [4]: >50 % MPE; inhibition in vivo at 1 mg/kg [5]: > 50%
Cc1cnccc1-c1nc(-c2ccc3c(ccn3C(C)C)c2)no1 [Compound 142, 3-(1-isopropyl-1H-indol-5-yl)-5-(3-methylpyridin-4-yl)-1,2,4-oxadiazole]	>6.5	>5	no change: 6 mg/kg, 7 days	> 50		Emax [2]: > 75%; Emax [3]: > 75%; Screen @ 3 mg/kg sc (% MPE) [4]: >50 % MPE; inhibition in vivo at 1 mg/kg [5]: > 50%; Active Doses, mg/kg sc (>50% MPE) [7]: ≥0.1 mg/kg
CC(C)Oc1ccc(-c2ncc(-c3ccnc(O)c3)cn2)cc1C#N [Compound 744, 5-(5-(2-hydroxypyridin-4-yl)pyrimidin-2-yl)-2-isopropoxybenzonitrile]					> 10	
CC(C)Oc1ccc(-c2nc(-c3cccc4c3CC[C@@H]4NCCO)no2)cc1C#N [ozanimod, reference compound]						percent tumor growth delay (% TGD), monotherapy [1]: 31%
CC(C)Oc1ccc(-c2ncc(-c3ccccn3)cn2)cc1C#N [Compound 742, 2-isopropoxy-5-(5-(pyridin-2-yl)pyrimidin-2-yl)benzonitrile]					> 10	
N#Cc1cc(-c2nc(-c3ccc4c(c3)NC(=O)C4)no2)ccc1NCC1CC1 [Compound 497, 2-((cyclopropylmethyl)amino)-5-(3-(2-oxoindolin-6-yl)-1,2,4-oxadiazol-5-yl)benzonitrile]	>6.5	>5		< 50	> 10	
CC(F)(F)CNc1ccc(-c2nnc(-c3ccc4[nH]cnc4c3)o2)cc1C#N [Compound 520, 5-[5-(1H-1,3-benzodiazol-5-yl)-1,3,4-oxadiazol-2-yl]-2-[(2,2-difluoropropyl)amino]benzonitrile]	>6.5	>5	no change: 6 mg/kg, 7 days	> 50	> 10	Emax [2]: > 75%; Emax [3]: > 75%
CC(C)Nc1ccc(-c2nc(-c3ccc4nonc4c3)no2)cc1C#N [Compound 730, 5-[3-(2,1,3-benzoxadiazol-5-yl)-1,2,4-oxadiazol-5-yl]-2-[(propan-2-yl)amino]benzonitrile]			no change: 6 mg/kg, 7 days	> 50	> 10	
CC(C)Nc1ccc(-c2ncc(-c3ccnc(O)c3)cn2)cc1C#N [Compound 743, 5-(5-(2-hydroxypyridin-4-yl)pyrimidin-2-yl)-2-(isopropylamino) benzonitrile]					> 10	
COc1ccc(-c2noc(-c3ccc4c(c3)nnn4C(C)C)n2)c(C)c1 [Compound 55, 5-(1-isopropyl-1H-benzo[d][1,2,3]triazol-5-yl)-3-(4-methoxy-2-methylphenyl)-1,2,4-oxadiazole]	>6.5	>5	no change: 6 mg/kg, 7 days			Screen @ 3 mg/kg sc (% MPE) [4]: >50 % MPE; inhibition in vivo at 1 mg/kg [5]: < 50%
CC(C)Oc1ccc(-c2ncc(-c3cccnc3)cn2)cc1C#N [Compound 738, 2-isopropoxy-5-(5-(pyridin-3-yl)pyrimidin-2-yl)benzonitrile]					> 10	

Reference: patent publication US11912693B2, “Compounds for modulating S1P1 activity and methods of using the same” (TREVENA, INC., priority 2017, dated 2024)
